Where “and” joins values, the source holds several entries; their conditions need not be identical. Equal values may be shown once. Entries after “also recorded” stand apart in the source; their conditions may differ.
Key:
[1] = Clinical study: fasting serum lipids, lipoproteins and apolipoproteins (automated analyzer); format: in vivo, human; conditions: 6 weeks
Description: At visit 2, subjects were again asked to fast for 12 hours, and information about subject characteristics including all vital signs, recent illness or hospitalization, medication and supplement use, and diet information was again obtained. Subjects then had blood drawn for a metabolic profile and complete blood counts. […] Subjects (30 in each group) were then randomized equally for 6 weeks to one of four treatment arms: 1) olive oil placebo; 2) 600 mg of EPA/day; 3) 1800 mg of EPA/day; and, 4) 600 mg of DHA/day. At one week and three weeks after beginning the supplements, all study subjects were contacted by telephone and asked about any adverse effects and about their compliance, and the information on their calendars with regard to capsule use and fish intake. They were also asked about whether they had experienced any fishy aftertaste or odor, and if so, how frequent were these episodes, and how unpleasant were they? The entire process as listed above was repeated after study subjects were on the study capsules for 6 weeks at the time of the final visit. Compliance and adverse events were assessed by telephone at weeks 1 and 3 by telephone and at week 6 by questionnaire and capsule count. Over 42 days, subjects were expected to have consumed a total of 252 capsules. Compliance was calculated as a percentage of consumed capsule count/expected capsule count based on the number of days the subject was in the study. All subjects were asked to stay on their capsules until they come in for their final visit. Compliance in all participants who completed the study was based on capsule count was in excess of 85%, mean 96%.
The following laboratory measurements were carried out on an automated analyzer (Roche Diagnostics, Indianapolis, Ind.) on samples obtained in the fasting state at the randomization visit, and the final visits using frozen aliquots of serum stored at −80 degrees Celsius: 1) total cholesterol; 2) triglycerides; 3) direct high density lipoprotein [“HDL”] cholesterol; 4) direct low density lipoprotein [“LDL”] cholesterol; 5) direct small dense LDL cholesterol; 6) apolipoprotein [“apo”] B; 7) apoA-I; 8) lipoprotein (a); 9) fibrinogen; 10) high sensitivity C reactive protein [“hs-CRP”]; 11) lipoprotein associated phospholipase A2 [“Lp-PLA2”]; and, 12) insulin as previously described. See, McNamara, J. R. and Schaefer, E. J., Clin. Chim. Acta, 166:1-8 (1987); Okada, M. et al., J. Lab. Clin. Med., 132:195-201 (1998); Hirano, T. et al., J. Lipid Res., 44:2193-2201 (2003); Ai, M. et al., Am. J. Cardiol., 101:315-318 (2008); Ingelsson, E. et al., JAMA, 298:776-785 (2007); Jenner, J. L. et al., Circulation, 87:1135-1141 (1993); Schaefer, E. J. et al., Am. J. Cardiol., 95:1025-1032 (2005); McNamara, J. R. et al., Atherosclerosis, 154:229-236 (2001).
(§1) On the samples obtained 4 hours after the fat-rich meal, total cholesterol, triglycerides, direct HDL cholesterol, and direct LDL cholesterol were measured. Direct LDL cholesterol and small dense LDL cholesterol levels were measured using kits obtained from Denka-Seiken Corporation, (Tokyo, Japan), as previously described (Okada, M. et al., supra; Hirano, T. et al., supra; Ai, M. et al., supra). Remnant lipoprotein cholesterol was measured using kits obtained from Polymedco (Cortland Manor, N.Y.) and manufactured by Otsuka Corporation (Tokyo, Japan) as previously described (McNamara, J. R. et al., Atherosclerosis, supra). All lipid assays are standardized through the Lipid Research Clinics standardization program of the Centers for Disease Control (Atlanta, Ga.). All assays had between and within run coefficients of variation of <5%. Serum fatty acid profiles were analyzed by Nutrasource Diagnostics (Guelph, Ontario, Canada).

[2] = cited from earlier work
[3] = cited from earlier work; remark: listed apart in the source
[4] = Clinical study: serum fatty acid profiles (EPA, ARA/EPA, Total Omega-3 Score); format: in vivo, human; conditions: 6 weeks; for serum ratio of ARA/EPA (Inflammation Index): FIG. 3
Description: as §1

## CCC=CCC=CCC=CCC=CC/C=C\CCCC(=O)O [EPA, cis-5,8, 11, 14, 17-eicosapentaenoic acid]
[1]; EPA 600 mg (n = 27), Fast
  LDL C, Final: 118.1 ± 35.8 mg/dL
  Lp(a), 6-Week Change (%): +18.3 ± 84.8%
  Lp(a), Final: 32.8 ± 32.4 mg/dL
  Total Cholesterol, 6-Week Change (%): −1.8 ± 9.5%
  Total Cholesterol, Final: 199.2 ± 48.7 mg/dL
  Triglyceride, 6-Week Change (%): −1.3 ± 31.6%
  Triglyceride, Final: 107.0 ± 43.2 mg/dL
  apoA-I, 6-Week Change (%): −1.3 ± 12.4%
  apoA-I, Final: 173.6 ± 36.3 mg/dL
  apoB, 6-Week Change (%): −2.3 ± 10.9%
  apoB, Final: 90.1 ± 22.8 mg/dL
  sdLDL, 6-Week Change (%): −7.3 ± 18.2%
  sdLDL, Final: 29.5 ± 12.0 mg/dL
[1]; EPA 600 mg/day, p=0.0087
  decrease versus baseline in small dense LDL cholesterol: 7.3%
[1]; EPA 1800 mg (n = 29), Fast
  HDL C, 6-Week Change (%): +2.5 ± 12.7%
  HDL C, Final: 59.9 ± 15.7 mg/dL
  LDL C, 6-Week Change (%): −2.0 ± 13.7%
  LDL C, Final: 120.6 ± 26.8 mg/dL
  Lp(a), 6-Week Change (%): +5.1 ± 26.1%
  Lp(a), Final: 32.2 ± 23.6 mg/dL
  Total Cholesterol, 6-Week Change (%): −1.7 ± 11.2%
  Total Cholesterol, Final: 201.1 ± 35.3 mg/dL
  Triglyceride, 6-Week Change (%): −5.0% and −5.0 ± 28.6%
  Triglyceride, Final: 102.8 ± 82.8 mg/dL
  apoA-I, 6-Week Change (%): +0.4 ± 10.8%
  apoA-I, Final: 173.1 ± 31.3 mg/dL
  apoB, 6-Week Change (%): −1.6 ± 12.2%
  apoB, Final: 91.7 ± 19.1 mg/dL
  sdLDL, 6-Week Change (%): −8.8 ± 19.5%
  sdLDL, Final: 30.6 ± 9.4 mg/dL
[1]; EPA 1800 mg/day, p=0.018
  decrease versus baseline in small dense LDL cholesterol: 8.8%
[2]; 4 grams per day
  effects on C-reactive protein, interleukin-6, or tumor necrosis alpha: no significant effects
[2]; 4 grams/day, overweight, hyperlipidemic men
  reduction of triglyceride levels: 18%
[3]; TG forms
  better absorbed than EE forms: 48%
[3]; administered as an EE
  EPA incorporation into plasma lipids: considerably smaller
[4]
  metabolic conversion of EPA to DHA: no indication
[4]; FIG. 4
  Total Omega-3 Score: increased
[4]; EPA 600 and 1800 mg/day, DHA 600 mg/day, FIG. 1
  serum level of EPA: significantly raised
[4]; EPA 600 and 1800 mg/day, DHA 600 mg/day, listed as EPA substantially free of DHA
  serum ratio of ARA/EPA (Inflammation Index): significantly decreased
[4]; EPA 600 and 1800 mg/day, DHA 600 mg/day, listed as EPA-rich oil
  serum ratio of ARA/EPA (Inflammation Index): dose-related decrease; also recorded: significantly decreased

Source: patent US20110178105A1, “CLINICAL BENEFITS OF EICOSAPENTAENOIC ACID IN HUMANS” (E.I. DU PONT DE NEMOURS AND COMPANY, priority 2010, published 2011)
